Experimental data reported in patent US20250108038A1 (priority 2023, published 2025).
“Also recorded” adds a separate entry of the source.

What was measured:
[1] = target: T1, MATE1 (Homo sapiens, UniProt Q96FL8); assay: Uptake transporter inhibition assay, MATE1 (metformin)
T1 sequence (Q96FL8 1-570): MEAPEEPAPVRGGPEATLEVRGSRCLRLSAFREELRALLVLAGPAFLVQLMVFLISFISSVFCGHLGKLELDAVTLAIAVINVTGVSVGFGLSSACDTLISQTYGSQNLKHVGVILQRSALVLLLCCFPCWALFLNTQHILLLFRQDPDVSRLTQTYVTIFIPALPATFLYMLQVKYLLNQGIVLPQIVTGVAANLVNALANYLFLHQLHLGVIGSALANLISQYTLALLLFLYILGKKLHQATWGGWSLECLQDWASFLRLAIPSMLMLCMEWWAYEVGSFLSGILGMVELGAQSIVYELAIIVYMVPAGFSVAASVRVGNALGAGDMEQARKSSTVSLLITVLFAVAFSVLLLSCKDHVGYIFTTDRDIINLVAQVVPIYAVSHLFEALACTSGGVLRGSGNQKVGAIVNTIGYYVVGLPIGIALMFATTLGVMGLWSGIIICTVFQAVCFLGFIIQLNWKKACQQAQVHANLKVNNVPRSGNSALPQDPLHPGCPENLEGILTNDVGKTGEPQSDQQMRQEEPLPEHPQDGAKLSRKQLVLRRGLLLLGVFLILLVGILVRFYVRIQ

[2] = target: T2, OATP1B3 (Homo sapiens, UniProt Q9NPD5); assay: Uptake transporter inhibition assay, OATP1B3 (CCK-8); settings: for Relative transporter specific accumulation: CCK-8, Table 120
T2 sequence (Q9NPD5 1-702): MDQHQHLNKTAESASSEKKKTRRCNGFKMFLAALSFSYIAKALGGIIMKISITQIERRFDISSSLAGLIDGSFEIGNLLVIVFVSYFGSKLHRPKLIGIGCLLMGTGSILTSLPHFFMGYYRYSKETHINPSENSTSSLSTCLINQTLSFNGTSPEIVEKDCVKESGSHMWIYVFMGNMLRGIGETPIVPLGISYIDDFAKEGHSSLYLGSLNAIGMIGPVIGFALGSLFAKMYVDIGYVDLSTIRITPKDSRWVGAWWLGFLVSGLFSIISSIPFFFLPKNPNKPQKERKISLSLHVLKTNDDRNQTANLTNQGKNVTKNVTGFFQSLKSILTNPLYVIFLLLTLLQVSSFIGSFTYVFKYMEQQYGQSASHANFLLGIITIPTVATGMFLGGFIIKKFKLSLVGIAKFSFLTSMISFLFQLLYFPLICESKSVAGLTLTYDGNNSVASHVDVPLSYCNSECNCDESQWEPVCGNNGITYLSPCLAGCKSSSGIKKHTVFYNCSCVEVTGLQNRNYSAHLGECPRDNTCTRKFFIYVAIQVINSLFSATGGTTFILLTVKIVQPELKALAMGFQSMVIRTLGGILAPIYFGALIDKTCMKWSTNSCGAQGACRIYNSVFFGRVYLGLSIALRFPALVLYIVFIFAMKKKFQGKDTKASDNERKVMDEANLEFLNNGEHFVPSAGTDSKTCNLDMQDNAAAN
Experimental: Uptake experiments were performed using HEK293 cells stably expressing the respective uptake transporters. The assays were conducted according to the actual SOLVO uptake transporter assay protocols (PR-ASY-UPT-General Protocol for Uptake Transporter Inhibition Assays).
Cells were cultured at 37° C. in a humidified atmosphere containing 5% CO2 and were plated onto standard 96-well tissue culture plates.
Before the experiment, the medium was removed, and the cells were washed twice with 100 μL of pre-warmed (37° C.) assay buffer listed in Table 15. The cells were pre-incubated at 37° C. for 30 minutes in assay buffer containing the test article at appropriate concentrations (Table 16), appropriate solvents for solvent controls and the reference inhibitor for reference inhibitor wells. After the pre-incubation step solutions were removed. Uptake experiments were performed at 37° C. in 50 μL of assay buffer containing the probe substrate and the test article or solvent and controls.
After the experiment, cells were washed twice with 100 μL of appropriate cold buffer and lysed with 150 μL scintillation cocktail. Radiolabeled probe substrate transport was determined by liquid scintillation counting.
Uptake of the probe substrate in control cells provided background activity values for all data points.

[3] = in vitro
[4] = 0.04 μM nominal, IC50 determination
[5] = 0.12 μM nominal, IC50 determination
[6] = 1.11 μM nominal, IC50 determination
[7] = 10.00 μM nominal, IC50 determination
[8] = 30.00 μM nominal, IC50 determination

## OC1(c2ccc(Cl)cc2)c2ccccc2C2=NCCN21 (stereo not drawn) [Compound A, 5-(4-chlorophenyl)-2,3-dihydroimidazo[1,2-b]isoindol-5-ol, reference compound]
[1]
  IC50: 3.87 µM
[1]; [4]
  Relative transporter specific accumulation: 106.48 ± 4.34 % of control
  Transporter specific accumulation: 471.00 ± 14.24 cpm
[1]; [5]
  Relative transporter specific accumulation: 92.92 ± 5.23 % of control
  Transporter specific accumulation: 411.00 ± 20.23 cpm
[1]; [6]
  Relative transporter specific accumulation: 69.86 ± 2.64 % of control
  Transporter specific accumulation: 309.00 ± 8.08 cpm
[1]; 3.00 μM nominal
  Relative transporter specific accumulation: 54.89 ± 4.37 % of control
  Transporter specific accumulation: 181.33 ± 14.06 cpm
[1]; [7]
  Relative transporter specific accumulation: 38.96 ± 1.63 % of control
  Transporter specific accumulation: 172.33 ± 5.44 cpm
[1]; 30.00 μM nominal
  Relative transporter specific accumulation: 20.18 ± 1.49 % of control
  Transporter specific accumulation: 66.67 ± 4.78 cpm
[1]; [8]
  Relative transporter specific accumulation: 20.65 ± 0.69 % of control
  Transporter specific accumulation: 91.33 ± 1.76 cpm
[1]; human, Maximum % inhibition, MATE1, HEK293 cells, metformin (10 μM), NIO: no inhibition observed
  inhibition at 10 µM: 79%
[1]; human, Relative inhibition, 0.04 μM nominal, IC50 determination
  inhibition at 0.04 μM: -6%
[1]; human, Relative inhibition, 0.12 μM nominal, IC50 determination
  inhibition at 0.12 μM: 7%
[1]; human, Relative inhibition, 1.11 μM nominal, IC50 determination
  inhibition at 1.11 μM: 30%
[1]; human, Relative inhibition, 3.00 μM nominal
  inhibition at 3 μM: 45%
[1]; human, Relative inhibition, 10.00 μM nominal, IC50 determination
  inhibition at 10 µM: 61%
[1]; human, Relative inhibition, 30.00 μM nominal
  inhibition at 30 μM: 80%
[1]; human, Relative inhibition, 30.00 μM nominal, IC50 determination
  inhibition at 30 μM: 79%
[2]; 3.00 μM nominal
  Relative transporter specific accumulation: 92.81 ± 3.95 % of control
[2]; 30.00 μM nominal
  Relative transporter specific accumulation: 90.63 ± 4.66 % of control
[2]; 2-concentration assay, up to 100 μM (Compound A up to 30 μM)
  maximum inhibition of OATP1B3-mediated CCK-8 accumulation: did not inhibited; also recorded: not an in vitro inhibitor
[2]; OATP1B3, HEK293 cells, CCK-8 (1 μM), NIO: no inhibition observed
  Maximum % inhibition: NIO
[2]; human
  inhibition at 3 μM: 7%
  inhibition at 30 μM: 9%

## COCCOC1(c2ccc(Cl)cc2)c2ccccc2C2=NCCN21 (stereo not drawn) [Compound I-4]
[3]; 0 min
  Compound A formed (Aa/Ai): 0.55
[3]; 2.0 μM, 0 min
  % Remaining: 100%
  Aa/Ai Mean (N = 2): 3.23
[3]; 2.0 μM, 5 min
  % Remaining: 105%
  Aa/Ai Mean (N = 2): 3.39
[3]; 2.0 μM, 15 min
  % Remaining: 107%
  Aa/Ai Mean (N = 2): 3.46
[3]; 2.0 μM, 30 min
  % Remaining: 101%
  Aa/Ai Mean (N = 2): 3.27
[3]; 2.0 μM, 60 min
  % Remaining: 92.6%
  Aa/Ai Mean (N = 2): 2.99
[3]; 2.0 μM, 60 min incubation
  T1/2: >3.12 h
[3]; 5 min
  Compound A formed (Aa/Ai): 0.61
[3]; 15 min
  Compound A formed (Aa/Ai): 0.60
[3]; 30 min
  Compound A formed (Aa/Ai): 0.53
[3]; 60 min
  Compound A formed (Aa/Ai): 0.42
